Data from PubChem BioAssay (NCI).
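Exposure lasted 48 hours, with cells grown in 96-well plates and compounds tested at five concentrations. The concentration for 50% growth inhibition is given as GI50. TGI is the concentration that stops growth completely.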

Legend:
Assay in all cases: NCI tumour cell line growth inhibition, 48 h
CCRF-CEM leukemia = tested on: CCRF-CEM leukemia
HCC-2998 colon = tested on: HCC-2998 colon
HL-60(TB) leukemia = tested on: HL-60(TB) leukemia
IGROV1 ovarian = tested on: IGROV1 ovarian
K-562 leukemia = tested on: K-562 leukemia
MALME-3M melanoma = tested on: MALME-3M melanoma
NCI/ADR-RES ovarian = tested on: NCI/ADR-RES ovarian
SF-539 CNS = tested on: SF-539 CNS
SK-MEL-28 melanoma = tested on: SK-MEL-28 melanoma
SR leukemia = tested on: SR leukemia

| SMILES | TGI (CCRF-CEM leukemia) | TGI (HCC-2998 colon) | TGI (HL-60(TB) leukemia) | TGI (IGROV1 ovarian) | TGI (K-562 leukemia) | TGI (MALME-3M melanoma) | TGI (NCI/ADR-RES ovarian) | TGI (SF-539 CNS) | TGI (SK-MEL-28 melanoma) | TGI (SR leukemia) | GI50 (CCRF-CEM leukemia) | GI50 (HCC-2998 colon) | GI50 (HL-60(TB) leukemia) | GI50 (IGROV1 ovarian) | GI50 (K-562 leukemia) | GI50 (NCI/ADR-RES ovarian) | GI50 (SF-539 CNS) | GI50 (SR leukemia) |
| --- | --- | --- | --- | --- | --- | --- | --- | --- | --- | --- | --- | --- | --- | --- | --- | --- | --- | --- |
| CCOC(=O)C(=[N+]=[N-])C(=O)Nc1nn2nnnc2c2ccccc12 | > 100 µM | > 100 µM | > 100 µM | > 100 µM | > 100 µM | > 100 µM | > 100 µM | > 100 µM | > 100 µM | > 100 µM |  |  |  |  |  |  |  |  |
| O=[N+]([O-])c1ccc(S[C@@H]2[C@H]3c4c(-c5ccccc5)[nH]c(-c5ccccc5)c4[C@@H]2C[C@H]3Cl)cc1 |  |  | 24.3 µM | > 100 µM |  | 78.9 µM | 26.4 µM | > 100 µM | > 100 µM | > 100 µM |  |  |  |  |  |  |  |  |
| CC(=O)OCC1OC(n2c3c(c(-c4cccc5ccccc45)c(C#N)c2=S)CCCC3)C(OC(C)=O)C(OC(C)=O)C1OC(C)=O (stereo not given) | > 100 µM | > 100 µM | > 100 µM | > 100 µM | > 100 µM | > 100 µM | > 100 µM | > 100 µM | > 100 µM | > 100 µM |  |  |  |  |  |  |  |  |
| C=C(CCC(C)C1CCC2C3=C(C(=O)CC21C)C1(C)CCC(=O)[C@@H](C)C1CC3=O)C(C)C(=O)O (stereo not given in full) | 42.2 µM | > 100 µM | 32.6 µM | > 100 µM | 35.2 µM | > 100 µM | > 100 µM | > 100 µM | > 100 µM | 74.8 µM |  |  |  |  |  |  |  |  |
| CCNc1ccc2c(c1)Cc1ccccc1-2 | > 100 µM | > 100 µM | > 100 µM | > 100 µM | > 100 µM | > 100 µM | > 100 µM | > 100 µM | > 100 µM | > 100 µM |  |  |  |  |  |  |  |  |
| COC1OC(Cc2nnc(C)o2)C(OCc2ccccc2)C(OCc2ccccc2)C1OCc1ccccc1 (stereo not given) | 52.7 µM |  | 76.3 µM | 52.4 µM | 98.5 µM | 38.9 µM | 70 µM | > 100 µM | 45.3 µM | 29.6 µM |  |  |  |  |  |  |  |  |
| COc1ccc(N(C)C(=O)N(C)c2ccc([N+](=O)[O-])cc2)cc1 | > 100 µM | > 100 µM | > 100 µM | > 100 µM | > 100 µM | > 100 µM | 68.4 µM | 96.6 µM | > 100 µM | > 100 µM |  |  |  |  |  |  |  |  |
| Cc1cc(C)c(P2C(=C(O[Si](C(C)C)(C(C)C)C(C)C)C(C)(C)C)C2(c2ccccc2)c2ccccc2)c(C)c1 (stereo not given) | > 100 µM | > 100 µM | > 100 µM | > 100 µM | > 100 µM |  | > 100 µM | > 100 µM | > 100 µM | > 100 µM |  |  |  |  |  |  |  |  |
| Nc1nc(-c2ccccc2N=NN2CCCC2)nc2ccccc12 | 19.1 µM |  |  | 17.3 µM | 10.2 µM | 13.5 µM | 12.2 µM | 5 µM | 25.2 µM | 2.38 µM |  |  |  |  |  |  |  |  |
| COc1ccc2c(c1)C(N)=C(c1ccccc1)C2=O | > 100 µM | > 100 µM | > 100 µM | > 100 µM |  | > 100 µM | > 100 µM | > 100 µM | > 100 µM | > 100 µM |  |  |  |  |  |  |  |  |
| CC[N+](C)(CC)CCC(O)(c1ccccc1)c1ccccc1 | > 100 µM | > 100 µM | > 100 µM | > 100 µM | > 100 µM | > 100 µM | > 100 µM |  | > 100 µM | > 100 µM |  |  |  |  |  |  |  |  |
| COc1ccc(/C=c2\[nH]c3nc(=O)c(N4CCOCC4)c(N)n3c2=O)cc1 | > 100 µM | > 100 µM | > 100 µM | > 100 µM | > 100 µM | > 100 µM | > 100 µM | > 100 µM | > 100 µM | > 100 µM |  |  |  |  |  |  |  |  |
| N#Cc1nc(CCCCCN2C(=O)c3ccccc3C2=O)oc1N | 74.5 µM | > 100 µM |  | > 100 µM | > 100 µM | > 100 µM | > 100 µM | > 100 µM | > 100 µM | > 100 µM |  |  |  |  |  |  |  |  |
| Cc1ccc(C(=O)N/N=C(\N=Nc2cccc(Cl)c2)c2ccc(N(CCC#N)CCC#N)cc2C)cc1 | > 100 µM | > 100 µM | > 100 µM | > 100 µM | > 100 µM | > 100 µM | > 100 µM | > 100 µM | > 100 µM | > 100 µM |  |  |  |  |  |  |  |  |
| Cc1ccc(C(=O)O)c(CC2Cc3c(C)cccc3C2=O)c1 (stereo not given) | > 100 µM | > 100 µM | > 100 µM | > 100 µM | > 100 µM | > 100 µM | > 100 µM | > 100 µM | > 100 µM | > 100 µM |  |  |  |  |  |  |  |  |
| COc1cc2nc(-c3ccc4ccccc4c3)[nH]c(=O)c2cc1OC | > 100 µM | > 100 µM | > 100 µM | > 100 µM | > 100 µM | > 100 µM | > 100 µM |  |  | > 100 µM |  |  |  |  |  |  |  |  |
| N=c1oc2ccc3ccccc3c2cc1C(N)=O | > 100 µM | 90.6 µM | > 100 µM | 70.8 µM |  |  | > 100 µM |  | > 100 µM | > 100 µM |  |  |  |  |  |  |  |  |
| CCOC(=O)C(NC(=O)N(C1=NCC(C)S1)C1CCCCC1)(OC)C(F)(F)F (stereo not given) | > 100 µM | > 100 µM | 59.5 µM |  | > 100 µM | > 100 µM | > 100 µM | 93.1 µM | > 100 µM | > 100 µM |  |  |  |  |  |  |  |  |
| O=[N+]([O-])c1ccc2nc(-c3ccccn3)c(-c3ccccn3)nc2c1 | > 100 µM | > 100 µM | > 100 µM | > 100 µM |  | > 100 µM | > 100 µM | > 100 µM | > 100 µM | > 100 µM |  |  |  |  |  |  |  |  |
| CO/C(=N\N=C\c1cccc(Cl)c1)c1ccncc1 | > 10 µM | > 10 µM | > 10 µM |  | > 10 µM | > 10 µM | > 10 µM |  |  | > 10 µM |  |  |  |  |  |  |  |  |
| Clc1ccc(N2N=C(c3cccc(Nc4ccncc4)c3)CC2c2ccc3c(c2)OCO3)cc1 (stereo not given) | 15.9 µM | 3.2 µM | 4.16 µM | 3.67 µM | 5.39 µM |  | 3.17 µM | 3.38 µM |  | 4.76 µM | 3.18 µM | 1.79 µM | 1.93 µM | 1.73 µM | 2.09 µM | 1.64 µM | 1.79 µM | 2 µM |
| NC(=S)N/N=C\c1ccc(OCc2cccc(COc3ccc(/C=N/NC(N)=S)cc3)n2)cc1 | > 100 µM |  | > 100 µM | > 100 µM | > 100 µM | > 100 µM | > 100 µM | > 100 µM | > 100 µM | > 100 µM |  |  |  |  |  |  |  |  |
